The results in this text go back to article PMC8244865, “Recruitment of phospholipase Cγ1 to the non-structural membrane protein pK15 of Kaposi Sarcoma-associated herpesvirus promotes its Src-dependent phosphorylation” (PLoS Pathogens, 2021).

The test has as its target T1, PLCγ1 cSH2 (Homo sapiens, UniProt P19174).
T1 construct: cSH2 (668–790): 166 ± 30 nM; thioredoxin (pETM22 fusion, purified on Ni column) (N, cleaved yes); made in house; host or cells: E. coli BL21(DE3)
Description: 1H,15N HSQC NMR titration, PLCγ1 cSH2. Conditions: 1H-15N HSQC titration, 600 MHz, 298 K, 100 μM protein, 100 mM MES, 150 mM NaCl, 3 mM TCEP, pH 6.5. It counts as binding. The protocol: Fig 5 Affinity of pK15 peptide for PLCγ1 tSH2 or individual SH2 domains. (A) Binding curves of several PLCγ1 fragments in the presence of 200 nM 5,6-FAM-labelled pK15 (12mer). All measurements were performed in triplicate. […] (B and C) Overlay of ^1H,^15N HSQC NMR spectra of nSH2 (B) and cSH2 (C) alone (in yellow) and in the presence of 2 molar equivalents of the pK15 12mer peptide (blue), measured with a 600 MHz spectrometer at 298 K. The protein concentration was 100 μM and the buffer contained 100 mM MES, 150 mM NaCl, 3 mM TCEP, pH 6.5. (D and E) Excerpts from ^1H-^15N HSQC spectra of nSH2 (D) and cSH2 (E) upon addition of increasing concentrations of the pK15 12mer peptide.
Next, we used Nuclear Magnetic Resonance (NMR) spectroscopy to further compare the interaction of the phosphorylated pK15 12mer to the isolated nSH2 and cSH2 domains (Fig 5B–5E). We recorded ^1H-^15N HSQC spectra of each of the two domains in the presence of increasing concentrations of the pK15 peptide. […] In light of this, it is conceivable that the preference of pK15 CT for cSH2 in vivo may be determined by kinetic rather than thermodynamic factors.
NMR experiments were recorded at 298 K on a 600-MHz Bruker Avance III-HD spectrometer equipped with an inverse HCN cryogenic probehead (nitrogen-cooled) and running Topspin 3.2 software. […] NMR data were processed in Topspin and analysed in CcpNmr Analysis v2.4 [74].

T1 sequence (P19174 668-790): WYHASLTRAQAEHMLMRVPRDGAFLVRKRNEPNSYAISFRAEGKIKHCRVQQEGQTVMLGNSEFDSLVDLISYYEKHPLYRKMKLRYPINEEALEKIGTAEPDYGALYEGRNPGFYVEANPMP

Take “DDLpYEEVLFPRN [pK15 12mer, phosphorylated peptide representing the last 12 amino acids of pK15 CT (DDLp…)]”: the NMR exchange regime result is “fast exchange regime”.
